Experimental findings from paper PMC12363935, “Unc-51 Like Kinase 3 (ULK3) is essential for autophagy and cell survival in multiple myeloma” (Research Square, 2025) are described below.

This assay has as its system ULK3 KO U266 MM cells. The assay is described as follows: ULK3 KO U266 in vivo model. On the set-up: species or system mice. The following applies: ULK3 KO U266, 10 mg/kg/day subcutaneously, M-F from day 20. An excerpt: Supplementary Figure 7. ULK3 ablation suppresses MM cell growth. A. Immunoblotting for ULK3 expression in parental, NTC CTRL and ULK3 KO U266 cells. Of note, NTC CTRL and ULK3 KO were used for the in vivo ULK3 KO model. Densitometric quantification values are annotated on the blot. B. Mice (n = 20/group) were tail vein injected […]
with 1 x106 NTC CTRL and ULK3 KO U266 MM cells. […]
onset of the disease compared to NTC CTRL . (C) Representative confocal microscopy images of formalin fixed, paraffin embedded tumors (5-micron sections), stained for human mitochondria (hMITO) as a readout of MM cells colocalization. Alexa Fluor Plus 488 goat anti-mouse were used as secondary antibody. (D) MTS showing the inhibitory profile of MA9060 on NTC CTRL and ULK3 KO for U266 cell line. Treatment with MA9060 (0-100 uM) for 48h show reduced activity of MA9060 in ULK3 KO cell lines. E. Mice were divided respectively in two groups, vehicle control (n = 10, β-HCD Captisol) or MA9-060 (n = 10). Treatment started at day 20 (M-F, 10 mg/kg/day subcutaneously). MA9-060 treatment improves overall survival in the NTC CTRL arm (median 41 days post-tumor […]
38 For MA9 therapy efficacy, mice were treated with vehicle (n=10) or MA9 (10 mg/kg/day, 39 subcutaneously, M-F from day 20; n=10) (Supplementary Fig. 7E, F). Survival and toxicity 40 (weight, clinical signs) was monitored. […]

Consider `Cc1cnc(Nc2ccc(C3CCN(C)CC3)c(F)c2)nc1Nc1ccc(Cl)c(NS(=O)(=O)C(C)(C)C)c1` [MA9060], for which the median overall survival is reported as 87 days.
